What was measured:
[1] = tested on: mice given high-fat diet (leptin resistance); assay: Body weight of mice given high-fat or normal diet with flurbiprofen for 8 weeks (Example 1); assay type: in vivo, mouse; settings: approximately 10 mg/kg per day orally in drinking water
Protocol: In the Examples, 4 weeks-old male mice (C57BL/6 Cr Slc, SHIMIZU Laboratory Supplies Co., Ltd.) were used as laboratory animals. All the animal tests in the Examples were carried out according to the NIH Guide for Care and Use of Laboratory Animals.
Mice were divided into four groups each consisting of 7-8 mice. Mice of individual groups were given diets as follows. • Group 1: Normal diet (10 kcal % fat, D12450B, produced by Research Diets, Inc.) only • Group 2: High-fat diet (60 kcal % fat, D12492, produced by Research Diets, Inc.) only • Group 3: Normal diet+flurbiprofen (F8514, produced by SIGMA) • Group 4: High-fat diet+flurbiprofen (F8514, produced by SIGMA)
Flurbiprofen was diluted with drinking water so that the administration amount of flurbiprofen would be approximately 10 mg/kg per day, and was orally administered to the mice in the form of drinking water. Thereafter, the mice were weighed every 7 days.
FIG. 3 is a graph showing changes in body weights of the mice of individual groups during 8 weeks after flurbiprofen administration. Values in the graph of FIG. 3 are averages of body weights of mice of each group (± their standard deviations) (n=7-8 with respect to each group). Further, statistic analysis was carried out using t-test.

[2] = tested on: STAT3 phosphorylation in hypothalami; assay: Western blotting of STAT3 phosphorylation in hypothalami 30 min after leptin injection (Example 2); assay type: in vivo, mouse; settings: Group 4 (high-fat diet+flurbiprofen) vs Group 2; approximately 10 mg/kg per day orally, 8 weeks; 30 minutes after leptin 1 mg/kg via tail vein; significance level <1%
Protocol: 4 weeks-old male mice (C57BL/6 Cr Slc) had been given normal diet (10 kcal % fat, D12450B, produced by Research Diets, Inc.) or high-fat diet (60 kcal % fat, D12492, produced by Research Diets, Inc.). Flurbiprofen was diluted with drinking water so that the administration amount of flurbiprofen would be approximately 10 mg/kg per day, and was orally administered to the mice in the form of drinking water.
Specifically, mice were divided into four groups each consisting of 7-8 mice. Mice of individual groups were given diets as follows. • Group 1: Normal diet (10 kcal % fat) only • Group 2: High-fat diet (60 kcal % fat) only • Group 3: Normal diet+flurbiprofen • Group 4: High-fat diet+flurbiprofen
A solution prepared by solving mouse-derived leptin (450-31, produced by PeproTech Inc. or 498-OB, rmLeptin, produced by R&D systems) in physiological saline was non-orally administered via tail vein to the mice, which had been given high-fat diet or normal diet for 8 weeks. The non-oral administration was done in such a manner that the administration amount of leptin would be 1 mg/kg. As a control for leptin administration, physiological saline in equal amount was administered to the mice via tail vein.
FIGS. 4 and 5 show the result of Western blotting of STAT3 phosphorylation in hypothalami of mice 30 minutes after leptin injection. […]

blood glucose level = assay: Glucose tolerance test after 8 weeks of diet (Example 4); assay type: in vivo, mouse; settings: 10 mg/kg per day orally
Text: In view of the above, Example 4 discussed whether it is possible to evaluate induction of leptin resistance by measuring a change in blood glucose level by the glucose tolerance test as a reference index. At the same time, Example 4 discussed whether administration of flurbiprofen can prevent induction of leptin resistance, by measuring a change in blood glucose level by the glucose tolerance test as a reference index. Specifically, 4 weeks-old mice (C57BL/6 Cr Slc) were divided into four groups each consisting of 14-16 mice. Mice of individual groups were given diets as follows for 8 weeks similarly with Example 3. • Group 1: Normal diet (10 kcal % fat) only • Group 2: High-fat diet (60 kcal % fat) only • Group 3: Normal diet+flurbiprofen • Group 4: High-fat diet+flurbiprofen Flurbiprofen (F8514, produced by SIGMA) was diluted with drinking water so that the administration amount of flurbiprofen would be 10 mg/kg per day, and was orally administered to the mice in the form of drinking water. […] In Example 4, mice were fasted overnight for 17 hours, and fasted blood glucose level (pre) was measured by Freestyle freedom (NIPRO CORPORATION, blood glucose self-monitoring system) at 10:00 a.m. […] Blood glucose level was measured by Freestyle freedom (NIPRO CORPORATION, blood glucose self-monitoring system) 30 minutes, 1 hour, and 2 hours after the administration. […]

[3] = tested on: circulating leptin levels; assay: Circulating leptin levels of leptin-resistant mice (Example 9); assay type: in vivo, mouse; settings: 3 weeks after flurbiprofen administration, 3 mg/kg per day orally; control 106.51±3.7122; P<0.05
Protocol: Similarly with Example 8, 4 weeks-old male mice (C57BL/6 Cr Slc) had been given high-fat diet for 6 months so that leptin resistance would be induced in the mice. Thereafter, the mice were divided into two groups (each consisting of 8 mice), and the mice of individual groups were given the following diets for 3 weeks. • Control group (Cont): normal diet (10 kcal % fat) only • Flurbiprofen-administered group (Ful): normal diet+flurbiprofen Flurbiprofen (F8514, produced by SIGMA) was diluted with drinking water so that the administration amount of flurbiprofen would be 3 mg/kg per day, and was orally administered to the mice in the form of drinking water. […] FIG. 15 is a graph showing circulating leptin levels (ng/ml) of the mice of the control group and the mice of the flurbiprofen-administered group which had been given normal diet for 3 weeks. Values in the graph of FIG. 15 are averages of circulating leptin levels (ng/ml) of mice of each group (± their standard deviations) (n=8 with respect to each group). Further, statistic analysis was carried out using t-test.

[4] = marketed non-steroidal anti-inflammatory agent; cited from earlier work

SMILES: C[C@@H](C(=O)O)c1ccc(-c2ccccc2)c(F)c1 [flurbiprofen]
- body weight ([1]; Group 3 (normal diet+flurbiprofen) vs Group 1 (normal diet only)): no significant difference in body weight
- body weight ([1]; Group 4 (high-fat diet+flurbiprofen) vs Group 2 (high-fat diet only), significance level <5%): prevented an increase in body weight
- intensity of STAT3 phosphorylation in hypothalami [2]: significantly higher
- blood glucose level in glucose tolerance test (blood glucose level; Group 3 (normal diet+flurbiprofen) vs Group 1 (normal diet)): no significant difference in blood glucose level
- blood glucose level in glucose tolerance test (blood glucose level; Group 4 (high-fat diet+flurbiprofen), 1 hour after glucose 2 g/kg i.p., significant difference vs Group 2): rapidly decreased blood glucose level
- circulating leptin level [3]: 87.105 ± 5.4415 ng/mL
- dependence and development of resistance [4]: no dependence on flurbiprofen or no development of resistance to flurbiprofen is observed

Source: patent publication US9132108B2, “Pharmaceutical composition for ameliorating and/or preventing leptin resistance, and use thereof” (HIROSHIMA UNIVERSITY, priority 2009, dated 2015)
